Data taken from PubChem BioAssay AID248 (DTP/NCI, 2004).
Several values for one entry are separate records, joined by “and”; a condition that tells them apart may be missing. Equal values may be shown once. Toxic doses and inconclusive results are not listed. Rule as the data show it: active = T/C of 150% or more; inactive = T/C below 125%.

System: L1210 leukemia ip in BDF1 mice, survival T/C
Test: NCI In Vivo Anticancer Drug Screen. Data for tumor model L1210 Leukemia (intraperitoneal) in B6D2F1 (BDF1) mice
Conditions: endpoint: mean survival time, higher = longer survival
Outline: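 Survival endpoint. Drug-treated group vs vehicle group, expressed as T divided by C. Tumor passaged by transplantation.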

[1] = dose: 100.0 mg/kg/injection, schedule: Q04DX003 (ip), vehicle: acetone
[2] = dose: 200.0 mg/kg/injection, schedule: Q04DX003 (ip), vehicle: acetone
[3] = dose: 400.0 mg/kg/injection, schedule: Q04DX003 (ip), vehicle: acetone
[4] = dose: 100.0 mg/kg/injection, schedule: Q01DX009 (ip), vehicle: saline
[5] = dose: 200.0 mg/kg/injection, schedule: Q01DX009 (ip), vehicle: saline
[6] = dose: 100.0 mg/kg/injection, schedule: Q04DX003 (ip), vehicle: saline
[7] = dose: 200.0 mg/kg/injection, schedule: Q04DX003 (ip), vehicle: saline
[8] = dose: 400.0 mg/kg/injection, schedule: Q04DX003 (ip), vehicle: saline
[9] = dose: 12.5 mg/kg/injection, schedule: Q01DX009 (ip), vehicle: saline
[10] = dose: 100.0 mg/kg/injection, schedule: Q01DX009 (ip), vehicle: Klucel (hydroxypropylcellulose) (HPC)
[11] = dose: 100.0 mg/kg/injection, schedule: Q04DX003 (ip), vehicle: Klucel (hydroxypropylcellulose) (HPC)
[12] = dose: 200.0 mg/kg/injection, schedule: Q01DX009 (ip), vehicle: Klucel (hydroxypropylcellulose) (HPC)
[13] = dose: 400.0 mg/kg/injection, schedule: Q01DX009 (ip), vehicle: Klucel (hydroxypropylcellulose) (HPC)
[14] = dose: 100.0 mg/kg/injection, schedule: Q01DX001 (ip), vehicle: acetone

Measured: T/C

O=C1C=CC(=O)N1c1ccc(Cl)cc1 (tested in a mixture with another compound)
inactive: [1] 94 % of control | [2] 103 % of control | [3] 87 % of control

c1csc(C[N+]23CN4CN(CN(C4)C2)C3)c1
inactive: [4] 92 % of control | [5] 103 % of control | dose: 400.0 mg/kg/injection, schedule: Q01DX009 (ip), vehicle: saline 101 % of control

Nc1ncnn1C(=S)NCc1ccccc1
inactive: [4] 100 % of control | [6] 89 % of control | [7] 90 % of control | [8] 88 % of control

CCCCCCCCCCCCNCCCCCCCCCCCC
inactive: dose: 3.12 mg/kg/injection, schedule: Q01DX009 (ip), vehicle: saline 102 % of control | dose: 6.25 mg/kg/injection, schedule: Q01DX009 (ip), vehicle: saline 97 % of control | dose: 6.25 mg/kg/injection, schedule: Q04DX003 (ip), vehicle: acetone 100 % of control | dose: 12.5 mg/kg/injection, schedule: Q01DX001 (ip), vehicle: saline 93 % of control | [9] 102 % of control | dose: 12.5 mg/kg/injection, schedule: Q04DX003 (ip), vehicle: acetone 96 % of control | dose: 25.0 mg/kg/injection, schedule: Q01DX001 (ip), vehicle: saline 93 % of control | dose: 100.0 mg/kg/injection, schedule: Q01DX009 (ip), vehicle: other 105 % of control | dose: 200.0 mg/kg/injection, schedule: Q01DX009 (ip), vehicle: other 105 % of control | dose: 400.0 mg/kg/injection, schedule: Q01DX009 (ip), vehicle: other 93 % of control

CC(C)(C)C#C[P+](C#CC(C)(C)C)(Cc1ccccc1)c1ccccc1
inactive: [9] 99 % of control | dose: 12.5 mg/kg/injection, schedule: Q04DX003 (ip), vehicle: saline 98 % of control | dose: 25.0 mg/kg/injection, schedule: Q01DX009 (ip), vehicle: saline 94 % of control | dose: 25.0 mg/kg/injection, schedule: Q04DX003 (ip), vehicle: saline 106 % of control | dose: 50.0 mg/kg/injection, schedule: Q04DX003 (ip), vehicle: saline 117 % of control

Cc1ccc2cccnc2c1N (tested in a mixture with another compound)
inactive: dose: 1.56 mg/kg/injection, schedule: Q01DX009 (ip), vehicle: DMSO 101 % of control | dose: 3.12 mg/kg/injection, schedule: Q01DX009 (ip), vehicle: DMSO 97 % of control | dose: 6.25 mg/kg/injection, schedule: Q01DX009 (ip), vehicle: DMSO 95 % of control and 97 % of control | dose: 12.5 mg/kg/injection, schedule: Q01DX009 (ip), vehicle: DMSO 100 % of control | dose: 25.0 mg/kg/injection, schedule: Q01DX009 (ip), vehicle: DMSO 94 % of control and 88 % of control | dose: 25.0 mg/kg/injection, schedule: Q04DX003 (ip), vehicle: DMSO 107 % of control | dose: 50.0 mg/kg/injection, schedule: Q04DX003 (ip), vehicle: DMSO 86 % of control | dose: 100.0 mg/kg/injection, schedule: Q04DX003 (ip), vehicle: DMSO 98 % of control

CC1(C)CC(=O)C=C(NCc2ccccc2)C1
inactive: dose: 50.0 mg/kg/injection, schedule: Q01DX009 (ip), vehicle: acetone 96 % of control | dose: 100.0 mg/kg/injection, schedule: Q01DX009 (ip), vehicle: acetone 95 % of control | dose: 200.0 mg/kg/injection, schedule: Q01DX009 (ip), vehicle: acetone 101 % of control

C=CCOCC(O)CN(C)c1ccccc1 (configuration not stated)
inactive: [10] 101 % of control | [11] 96 % of control | [12] 112 % of control | dose: 200.0 mg/kg/injection, schedule: Q04DX003 (ip), vehicle: Klucel (hydroxypropylcellulose) (HPC) 95 % of control | [13] 91 % of control | dose: 400.0 mg/kg/injection, schedule: Q04DX003 (ip), vehicle: Klucel (hydroxypropylcellulose) (HPC) 93 % of control

O=C1c2cccc3cccc(c23)C(=O)N1Cc1ccco1
inactive: [10] 94 % of control | [12] 89 % of control | [13] 93 % of control

CCCCCCCCCCCCc1ccccc1
inactive: dose: 50.0 mg/kg/injection, schedule: Q01DX001 (ip), vehicle: saline 91 % of control | dose: 100.0 mg/kg/injection, schedule: Q01DX001 (ip), vehicle: saline 97 % of control | dose: 200.0 mg/kg/injection, schedule: Q01DX001 (ip), vehicle: saline 97 % of control | dose: 400.0 mg/kg/injection, schedule: Q01DX001 (ip), vehicle: saline 101 % of control

COc1ccc(-c2cc(C(=O)O)c3ccc(C)cc3n2)cc1
inactive: dose: 100.0 mg/kg/injection, schedule: Q01DX009 (ip), vehicle: saline with Tween-80 103 % of control | dose: 200.0 mg/kg/injection, schedule: Q01DX009 (ip), vehicle: saline with Tween-80 95 % of control | dose: 400.0 mg/kg/injection, schedule: Q01DX009 (ip), vehicle: saline with Tween-80 96 % of control

CCCC1([N+]2(C)CCCC2)CS(=O)C1CC (configuration not stated)
inactive: [6] 98 % of control | [7] 93 % of control

O=C(O)CCCCCNC(=O)c1ccccc1
inactive: [10] 92 % of control | [6] 114 % of control | [12] 93 % of control | [7] 100 % of control | [13] 102 % of control | [8] 103 % of control

O=P(O)(c1cccc(Cl)c1)c1cccc(Cl)c1
inactive: [14] 91 % of control | [1] 97 % of control | dose: 200.0 mg/kg/injection, schedule: Q01DX001 (ip), vehicle: acetone 96 % of control | [2] 107 % of control | dose: 400.0 mg/kg/injection, schedule: Q01DX001 (ip), vehicle: acetone 91 % of control | [3] 97 % of control

c1ccc(CC2NCCc3ccccc32)cc1 (configuration not stated)
inactive: dose: 25.0 mg/kg/injection, schedule: Q04DX003 (ip), vehicle: acetone 102 % of control | dose: 25.0 mg/kg/injection, schedule: Q04DX003 (ip), vehicle: saline with Tween-80 99 % of control | dose: 50.0 mg/kg/injection, schedule: Q04DX003 (ip), vehicle: acetone 102 % of control | dose: 50.0 mg/kg/injection, schedule: Q04DX003 (ip), vehicle: saline with Tween-80 94 % of control | [14] 89 % of control | [1] 91 % of control | dose: 100.0 mg/kg/injection, schedule: Q04DX003 (ip), vehicle: saline with Tween-80 102 % of control

CCOC(=O)c1cc([N+](=O)[O-])cc2c1-c1c(cc([N+](=O)[O-])cc1[N+](=O)[O-])C2=O
inactive: dose: 12.5 mg/kg/injection, schedule: Q04DX003 (ip), vehicle: Klucel (hydroxypropylcellulose) (HPC) 98 % of control | dose: 25.0 mg/kg/injection, schedule: Q04DX003 (ip), vehicle: Klucel (hydroxypropylcellulose) (HPC) 101 % of control | dose: 50.0 mg/kg/injection, schedule: Q04DX003 (ip), vehicle: Klucel (hydroxypropylcellulose) (HPC) 103 % of control | [11] 96 % of control

Clc1ccc(/C=C/c2ccccc2)cc1
inactive: dose: 44.0 mg/kg/injection, schedule: Q01DX001 (ip), vehicle: other 96 % of control | dose: 66.0 mg/kg/injection, schedule: Q01DX001 (ip), vehicle: other 105 % of control | dose: 100.0 mg/kg/injection, schedule: Q01DX001 (ip), vehicle: other 100 % of control | dose: 150.0 mg/kg/injection, schedule: Q01DX001 (ip), vehicle: other 97 % of control | dose: 200.0 mg/kg/injection, schedule: Q01DX001 (ip), vehicle: other 100 % of control | dose: 400.0 mg/kg/injection, schedule: Q01DX001 (ip), vehicle: other 111 % of control

COC(=O)CN1C(=O)c2ccccc2C1=O
inactive: [6] 95 % of control | [7] 101 % of control | [8] 98 % of control

O=C(CBr)c1ccc2cc(Br)c3ccccc3c2c1
inactive: dose: 55.0 mg/kg/injection, schedule: Q01DX Z (ip), vehicle: methylcellulose (MC) 90 % of control | dose: 83.0 mg/kg/injection, schedule: Q01DX Z (ip), vehicle: methylcellulose (MC) 94 % of control | dose: 125.0 mg/kg/injection, schedule: Q01DX Z (ip), vehicle: methylcellulose (MC) 102 % of control

CCN(CC)CCSC(=O)c1ccccc1
inactive: dose: 50.0 mg/kg/injection, schedule: Q01DX009 (ip), vehicle: saline 94 % of control | [4] 100 % of control | [5] 100 % of control
